From article PMC5389515 (Nucleic Acids Research, 2016)

Columns and labels:
Trm11–Trm112 complex [1] = molecular target: Trm11–Trm112 complex (Saccharomyces cerevisiae, UniProt Q12463, D291A); assay: biochemical
Trm11–Trm112 complex [2] = molecular target: Trm11–Trm112 complex (Saccharomyces cerevisiae, UniProt Q12463); assay: biochemical
Chain of Trm11–Trm112 complex (Saccharomyces cerevisiae, UniProt Q12463) (Q12463 whole entry): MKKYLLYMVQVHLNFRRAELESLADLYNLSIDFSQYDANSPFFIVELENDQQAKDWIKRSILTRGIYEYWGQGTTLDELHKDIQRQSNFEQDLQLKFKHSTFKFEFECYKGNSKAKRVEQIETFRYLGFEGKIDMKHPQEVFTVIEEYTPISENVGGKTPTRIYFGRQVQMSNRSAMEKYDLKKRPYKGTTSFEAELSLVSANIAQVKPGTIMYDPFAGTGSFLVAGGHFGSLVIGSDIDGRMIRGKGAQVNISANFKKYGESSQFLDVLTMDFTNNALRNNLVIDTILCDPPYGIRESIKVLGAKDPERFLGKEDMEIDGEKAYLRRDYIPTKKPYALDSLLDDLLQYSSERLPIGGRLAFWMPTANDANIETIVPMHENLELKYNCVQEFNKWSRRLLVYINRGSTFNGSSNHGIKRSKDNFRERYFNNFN
Chain of Trm11–Trm112 complex (Saccharomyces cerevisiae, UniProt Q12463) (P53738 whole entry partner): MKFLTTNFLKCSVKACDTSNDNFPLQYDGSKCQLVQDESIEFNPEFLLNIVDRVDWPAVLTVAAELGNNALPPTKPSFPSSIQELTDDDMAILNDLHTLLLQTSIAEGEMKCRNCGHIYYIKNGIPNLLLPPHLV

Chain of Trm11–Trm112 complex (Saccharomyces cerevisiae, UniProt Q12463, D291A) (Q12463 whole entry D291A): as the sequence (Q12463 whole entry) above, with D291A counted along it
Chain of Trm11–Trm112 complex (Saccharomyces cerevisiae, UniProt Q12463, D291A) (P53738 whole entry partner): as the sequence (P53738 whole entry partner) above

Kd (Trm11–Trm112 complex [1]): 3.4 ± 0.6 µM | Kd (Trm11–Trm112 complex [2]): 1900 ± 300 nM
Compound: C[S+](CC[C@H](N)C(=O)O)C[C@H]1O[C@@H](n2cnc3c(N)ncnc32)[C@H](O)[C@@H]1O (some centres unmarked) [SAM]
